Reference: ChEMBL document CHEMBL1157539, “Thousands of chemical starting points for antimalarial lead identification” (Nature, 2010)

System: Plasmodium falciparum
Assay: GSK_TCMDC: Inhibition of Plasmodium falciparum 3D7 in whole erythrocytes, using parasite LDH activity as an index of growth.
Type: functional, organism-based
Details: Plasmodium falciparum, 3D7

Row | SMILES | XC50
1 | O=C(Nc1ccc(-c2ccccc2)c(OCCN2CCNCC2)c1)c1ccc(-c2ccc(Cl)cc2)cc1 | 0.779 µM
2 | CCOC(=O)c1c(C)noc1Nc1ccc(OC)cc1 | 0.672 µM
3 | CS(=O)(=O)c1cccc2sc(N3CCN(C(=O)c4ccc([N+](=O)[O-])o4)CC3)nc12 | 1.24 µM
4 | CN1CCC(C(=O)N(Cc2ccc(-c3ccc(CNCCc4ccccc4)cn3)cc2)C2CCN(Cc3ccccc3)CC2)CC1 | 0.787 µM
5 | Fc1ccc(C=NNc2nc3ccccc3[nH]2)cc1 | 0.783 µM
6 | Nc1c2c(nc3ccc(C(=O)Nc4ccccc4)cc13)CCCC2 | 0.714 µM
7 | COC(=O)c1ccc(N2CCN(CCCCNC(=O)c3ccc(NC(=O)c4ccc(Cl)cc4)cc3)CC2)c(OC)c1 | 1.3 µM
8 | Cc1ccc(CNc2cc(C(F)(F)F)nc(-c3ccc(S(C)(=O)=O)cc3)n2)cc1 | 0.498 µM
9 | COc1ccc(-c2cccc(NC(=O)c3ccc(C#N)cc3)c2)cc1CN1CCCN(C)CC1 | 0.756 µM
10 | Cc1onc(-c2c(F)cccc2Cl)c1C(=O)Nc1ccccc1I | 0.952 µM
11 | c1ccc(CN2CCCN(c3ccc4c(c3)CCN(Cc3ccc(-c5ncc[nH]5)cc3)CC4)CC2)cc1 | 0.762 µM
12 | Cc1ccc2nc(C)cc(N/N=C/c3cccc([N+](=O)[O-])c3)c2c1 | 0.876 µM
13 | CC(C)c1ncc(-c2ccncc2)c(C2CCC(CNC(=O)c3cccnc3)CC2)n1 (centres undefined) | 0.776 µM
14 | COc1ccccc1NC(=O)Nc1cccc(-c2ccc(-c3nc4cccc(C)c4[nH]3)s2)c1 | 0.579 µM
15 | CCNC(=O)Nc1ccc(N(C)c2ccnc(NC3CC3)n2)cc1 | 0.803 µM
16 | Clc1ccc(Cn2nc(Br)nc2Br)c(Cl)c1 | 0.439 µM
17 | C[C@H](Cc1ccc(C[C@@H](C)NC[C@H](O)c2cccc(Cl)c2)cc1)NC[C@H](O)COc1ccccc1 | 1.17 µM
18 | CC(C)NCc1ccc(OCc2cccc(COc3ccc(CNC(C)C)cc3I)c2)c(I)c1 | 0.092 µM
19 | CN1CCC(Oc2ccc(CN3CC[C@H](NC(=O)c4ccc(Cl)c(F)c4)C3)c3ccccc23)C1 (some centres undefined) | 0.738 µM
20 | Cc1cc(N)c2cc(NC(=O)c3ccc4ccccc4c3)ccc2n1 | 0.254 µM
21 | Cc1cccc2nc(-c3ccc(-c4cccc(CNCc5cccc(N)c5)c4)cc3)[nH]c12 | 0.39 µM
22 | CN1CCN(c2ccc(Nc3ncc([N+](=O)[O-])c(Nc4ccccc4O)n3)cc2)CC1 | 0.723 µM
23 | O=C(NC1CC1c1ccccc1)N(CCCn1ccnc1)Cc1csc(-c2ccc(CNCc3ccccc3)cc2)n1 (centres undefined) | 0.854 µM
24 | O=C(NCCCCN1CCC(c2ccc3ccccc3c2O)CC1)c1ccc(-c2ccc(Cl)cc2)cc1 | 0.181 µM
25 | CC(C)(C)c1ccc2oc(=O)n(C3CCN(C(=O)c4ccc([N+](=O)[O-])o4)CC3)c2c1 | 0.816 µM

Row | SMILES | XC50
26 | Cc1noc(-c2ccc3c(c2)CCN(CCC2CCC(NC(=O)/C=C/c4cccc(Cl)c4)CC2)CC3)n1 (centres undefined) | 0.998 µM
27 | COc1cc(C(F)(F)F)nc2c(CNCCCNc3cc(=O)c4ccccc4[nH]3)scc12 | 1.18 µM
28 | CCOc1ccc(C(=O)Nc2cc3c(c(C(F)(F)F)c2)CCNC3)cc1Cl | 1.06 µM
29 | CN1CCN(CC(=O)Nc2cccc(-c3ccc(-c4nc5cc(C(F)(F)F)ccc5[nH]4)s3)c2)CC1 | 0.309 µM
30 | CC(=O)Nc1[nH]c(-c2ccccc2)nc1C(N)=O | 0.249 µM
31 | CS(=O)(=O)Nc1ccc(-c2ccc3ccnc(N)c3c2)cc1 | 0.614 µM
32 | CCCCOc1cc(OC)c2ccccc2c1CCNCCCCNCCc1c(OCCCC)cc(OC)c2ccccc12 | 1.05 µM
33 | FC(F)(F)c1ccc2[nH]c(-c3ccc(-c4cccc(CNCCc5cccnc5)c4)s3)nc2c1 | 0.17 µM
34 | Cn1nc(-c2ccc(NC(=O)Nc3cc(C(F)(F)F)ccc3F)cc2)c2cnc(NCCCCN3CCCC3)nc21 | 0.531 µM
35 | CC(C)(CC1CCCCC1)NC(=O)[C@H](CC1CCCCC1)Nc1ccc(C#N)c2ccccc12 | 0.592 µM
36 | CCCCCN1CCCC1CNS(=O)(=O)c1ccc(C(=O)Nc2cccc(C(F)(F)F)c2)cc1 (centres undefined) | 1.06 µM
37 | COc1ccc2nccc([C@@H](O)CN3CCC(NCc4nc5c(OCc6ccccc6)cccc5[nH]4)CC3)c2c1 | 0.178 µM
38 | COc1ccc2[nH]cc(C3CC4CCC(C3)N4CCC3CCN(C(=O)/C=C/c4ccc(Cl)c(Cl)c4)CC3)c2c1 (centres undefined) | 0.624 µM
39 | CCSc1nnc(C2CCCN(CC(=O)Nc3cc(C(F)(F)F)ccc3Cl)C2)n1CC (centres undefined) | 0.232 µM
40 | Fc1ccc2[nH]c(-c3ccc(-c4ccc(CNCCc5ccncc5)cc4)cc3)nc2c1 | 0.142 µM
41 | COc1ccc2nc3cc(Cl)ccc3c(NCCN3CCN(C)CC3)c2c1 | 0.124 µM
42 | O=C1NC(=S)N/C1=C/C=C/c1ccc([N+](=O)[O-])o1 | 1.07 µM
43 | Cc1cccc2nc(-c3ccc(-c4cccc(NC(=O)c5cncn5C)c4)s3)[nH]c12 | 0.645 µM
44 | Cn1cncc1C(=O)NC1CCN(c2ccnc(Nc3ccc(F)cc3)n2)C1 (centres undefined) | 0.832 µM
45 | Cc1cc(F)ccc1[C@H]1C[C@H](N2CCOCC2)CCN1C(=O)N(C)[C@@H](C)c1cc(C(F)(F)F)cc(C(F)(F)F)c1 | 0.764 µM
46 | Cc1cc2[nH]c(-c3ccc(C(=O)NCCCN4CCN(c5cccc(Cl)c5)CC4)s3)nc2cc1Cl | 0.653 µM
47 | COc1ccccc1Cn1ccnc1SCC(=O)Nc1cc(C(F)(F)F)ccc1Cl | 0.0999 µM
48 | Cc1ccc(Nc2ccnc(Nc3ccc4c(c3)CS(=O)(=O)C4)n2)cc1O | 0.725 µM
49 | c1ccc2[nH]c(-c3ccc(-c4ccc(CN5CCC(N6CCCCC6)CC5)cc4)s3)nc2c1 | 0.153 µM
50 | O=C(/C=C/c1ccc(C(F)(F)F)cc1)NCCCCCN1CCN(C(=O)Nc2ccc(F)c(Cl)c2)CC1 | 1.21 µM

Row | SMILES | XC50
51 | Cc1cccc2nc(-c3ccc(-c4ccc(CNCc5ccccc5)cc4)s3)[nH]c12 | 0.208 µM
52 | CCC1(C)CC(CCNCc2ccccc2O)(c2ccc(C)cc2)CCO1 (centres undefined) | 0.0387 µM
53 | Nc1ncc(-c2ccsc2)cc1-c1nc2ccccc2[nH]1 | 0.851 µM
54 | CN1CCN(CCNc2c3ccccc3nc3c2ccc2ccccc23)CC1 | 0.606 µM
55 | COc1ccc(C(O)CNC(C)CCc2ccccc2)cc1C(F)(F)F (centres undefined) | 0.0704 µM
56 | CCCCCCCc1c(C)nc2cccc(OC)c2c1O | 1.13 µM
57 | N#Cc1ccc2c(c1)CCN(CCC1CCC(NC(=O)/C=C/c3cccc4ccccc34)CC1)CC2 (centres undefined) | 0.729 µM
58 | COc1cc(-c2nc3c4ccccc4c4ccccc4c3[nH]2)cc(OC)c1OC | 0.848 µM
59 | CCOC(=O)CNC(=O)N1CCN(C(=O)NCC(=O)OCC)CC1 | 0.848 µM
60 | COc1ccc(CC(=O)NC2CCN(c3ccnc4cc(Cl)ccc34)C2)cc1 (centres undefined) | 0.241 µM
61 | O=C(/C=C/c1ccc(Cl)c(Cl)c1)NCC(CCCN1CCC(c2c[nH]c3ccccc23)CC1)c1ccccc1 (centres undefined) | 0.813 µM
62 | COc1ccc(Nc2nccc(-c3ccc4c(-c5ccsc5)cnc(N)c4c3)n2)cc1 | 0.236 µM
63 | CCOc1cc(C(=O)Nc2cccnc2)cc(Br)c1OCCC(C)C | 1.08 µM
64 | CNCCCN(C)C(=O)Oc1c(Br)c(C)nc(C)c1-c1ccc(Oc2ccc(OC(F)(F)F)cc2)cc1 | 0.386 µM
65 | CC1(C)N=C(N)N=C(N)N1OCc1cc2ccccc2cc1CON1C(N)=NC(N)=NC1(C)C | 0.126 µM
66 | COc1ccc(-c2cccc(CNC3CCN(CC4Cn5c(=O)ccc6ccc(F)c4c65)CC3)c2)cc1 (centres undefined) | 1.09 µM
67 | Cc1cc(Nc2ncc(Cl)c(Nc3ccccc3C(N)=O)n2)n[nH]1 | 0.811 µM
68 | COc1cccc(-c2cccc(-c3ccc(NC(=O)c4ccc([N+](=O)[O-])o4)cc3)n2)c1 | 0.515 µM
69 | O=C(NCCCCN1CCC(c2ccc3c(c2OCCO)CCCC3)CC1)c1ccc2oc(-c3ccc(C(F)(F)F)cc3)cc2c1 | 0.34 µM
70 | Cc1ccccc1C1CCN(C2CCC(NC(=O)/C=C/c3ccccc3C(F)(F)F)CC2)CC1 (centres undefined) | 1.41 µM
71 | CCCCCCCCN1CCN(CCCCCCNc2c3ccccc3nc3ccccc23)CC1 | 0.162 µM
72 | Cc1noc(C)c1-c1ccc2c(Nc3nccc4ccccc34)c(C(N)=O)cnc2c1 | 0.895 µM
73 | Nc1ncc(-c2cccc(F)c2)cc1-c1nc2cc(F)ccc2[nH]1 | 0.175 µM
74 | CCN(CC)CCN(Cc1ccc(-c2ccc(C(F)(F)F)cc2)cc1)C(=O)c1ccc(-c2ccc(NC(=O)OC)cc2C)cc1 | 0.929 µM
75 | Cc1cccc2nc(-c3ccc(-c4ccc(CNCc5cnn(-c6ccccc6)n5)cc4)s3)[nH]c12 | 0.718 µM

Row | SMILES | XC50
76 | CCn1ccc2c(N3CCCC3=O)cc(C(=O)N[C@@H](Cc3ccccc3)[C@H](O)CNC3CCCCC3)cc21 | 0.119 µM
77 | Cc1cccc(C)c1C1CCN(C2CCC(NC(=O)/C=C/c3ccccc3)CC2)CC1 (centres undefined) | 0.581 µM
78 | Oc1cccc(Nc2nc(NCc3ccco3)c3ccccc3n2)c1 | 0.415 µM
79 | O=C(NCC(c1ccc(C(F)(F)F)cc1)N1CCCC1)c1cc(-c2ccncc2)c(-c2cccc(O)c2)o1 (centres undefined) | 1.06 µM
80 | CC1(C)NC(N)=NC(=N)N1OCCCNC(=O)c1ccc(C(=O)NCCCON2C(=N)N=C(N)NC2(C)C)cc1 | 0.0216 µM
81 | COc1ccc2ccccc2c1CCCCN1CCN(CC(c2ccc(F)cc2)N2CCN(C3CCCC3)CC2)CC1 (centres undefined) | 0.772 µM
82 | CN(C)Cc1ccc(-c2ccc3ccnc(N)c3c2)cc1 | 0.38 µM
83 | Cc1cnc(C(=O)Nc2ccc(-c3cccc(-c4nc5ccccc5[nH]4)c3)cc2)cn1 | 0.833 µM
84 | O=C(C(=O)c1ccc(Nc2ccnc3cc(-c4ccccn4)ccc23)cc1)c1ccccc1 | 0.966 µM
85 | O=C(Nc1cccc(CN2CCCN(Cc3ccc(O)cc3)CC2)c1)c1cccc(C(F)(F)F)c1 | 0.314 µM
86 | N=C(N)NN=Cc1ccc2c(c1)Cc1ccccc1-2 | 0.586 µM
87 | Cc1cc(N2CCNCC2)c2cc(NC(=O)Nc3ccc(Cl)c(Cl)c3)ccc2n1 | 0.313 µM
88 | Cc1sc(C)c(CNCCCNc2cc(=O)c3ccccc3[nH]2)c1Br | 0.878 µM
89 | CCOc1ccc(C(=O)Nc2cc(Br)c3c(c2)CNCC3)cc1C#N | 0.765 µM
90 | COc1ccc2nccc([C@@H](O)CN3CCC(NC(=O)/C=C/c4cc([N+](=O)[O-])ccc4OC)CC3)c2c1 | 0.258 µM
91 | CCOC(=O)CCCc1cc(NC2CCN(C)CC2)nc(Nc2ccc(OC)cc2)n1 | 0.704 µM
92 | CCCCCCc1cc(OC)c(OC)cc1C(C)Nc1ccnc2cc(Cl)ccc12 (centres undefined) | 0.488 µM
93 | CCc1ccc(CN2CCC(CNC(=O)c3cc(-c4cccc(F)c4)cs3)C2)cc1 (centres undefined) | 1.36 µM
94 | CC(C)(C)c1ccc(CNC(=O)c2ccc(-c3nc4ccc(Cl)cc4[nH]3)cc2)cc1 | 0.819 µM
95 | Cn1nccc1C(=O)NCCNCc1ccc(-c2ccc(-c3nc4cc(F)ccc4[nH]3)cc2)cc1 | 0.297 µM
96 | COc1ccc(-c2csc3ncnc(Cl)c23)cc1OC | 0.769 µM
97 | COc1ccc2c(c1)Nc1ccc(Cl)cc1C2N (centres undefined) | 0.303 µM
98 | O=C(c1c(-c2[nH]c3ccccc3c2C(=O)C(F)(F)F)[nH]c2ccccc12)C(F)(F)F | 0.746 µM
99 | CSc1cccc(NC(=O)Nc2ccc(I)c(OCCN(C)C)c2)c1 | 0.691 µM
